# In PubChem BioAssay (NCI):
# “And” between values parts separate entries of the source, which are not always exact repeats. Equal values may be shown once.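 Cultured in 96-well plates, cells were exposed to test compound for 48 hours across five concentrations. Here, GI50 denotes the concentration required for 50% inhibition of growth. At the TGI there is no net growth.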
# What was measured:
# Assay in all cases: growth of human tumour cells (NCI), 48 h
# UO-31 renal = test system: UO-31 renal
# NCI-H522 lung = test system: NCI-H522 lung
# PC-3 prostate = test system: PC-3 prostate
# CAKI-1 renal = test system: CAKI-1 renal
# EKVX NSCLC = test system: EKVX NSCLC
# HCT-116 colon = test system: HCT-116 colon
# HCT-15 colon = test system: HCT-15 colon
# SNB-19 CNS = test system: SNB-19 CNS
# UACC-62 melanoma = test system: UACC-62 melanoma
# LOX IMVI melanoma = test system: LOX IMVI melanoma
Compound,TGI (UO-31 renal),TGI (NCI-H522 lung),TGI (PC-3 prostate),TGI (CAKI-1 renal),TGI (EKVX NSCLC),TGI (HCT-116 colon),TGI (HCT-15 colon),TGI (SNB-19 CNS),TGI (UACC-62 melanoma),TGI (LOX IMVI melanoma),GI50 (UO-31 renal),GI50 (NCI-H522 lung),GI50 (PC-3 prostate),GI50 (CAKI-1 renal),GI50 (EKVX NSCLC),GI50 (HCT-116 colon),GI50 (HCT-15 colon),GI50 (SNB-19 CNS),GI50 (UACC-62 melanoma),GI50 (LOX IMVI melanoma)
CCc1nc(N)nc(N)c1-c1ccc([N+](=O)[O-])c(Cl)c1,> 100 µM,> 52.9 µM,> 100 µM,> 100 µM,> 100 µM,> 100 µM,> 100 µM,> 100 µM,> 100 µM,> 100 µM,,,,,,,,,,
COc1ccc(S(=O)(=O)NCCNc2nccc(-c3c(-c4ccccc4)nc4sccn34)n2)cc1,> 100 µM,> 100 µM,> 100 µM,> 100 µM,> 100 µM,> 100 µM,> 100 µM,> 100 µM,> 100 µM,> 100 µM,0.706 µM,4.64 µM,1.64 µM,1.29 µM,7.11 µM,1.58 µM,2.42 µM,8.78 µM,1.17 µM,3.94 µM
CCCCCCN(CCCCCC)CC(O)c1cccc2ccc(Cl)cc12 (centres undefined),19.7 µM,23 µM,25 µM,14.7 µM,25.5 µM,14.2 µM,18.3 µM,26.6 µM,21.2 µM,15.6 µM,4.85 µM,7.94 µM,9.59 µM,2.64 µM,10.5 µM,3.09 µM,5.01 µM,12.9 µM,8.11 µM,4.14 µM
CCN(CC)CCOc1ccc(C2=C(c3ccccc3)CCc3cc(OC)ccc32)cc1,4.13 µM,9.25 µM,> 51.1 µM,5.86 µM,14 µM,4.19 µM,4.06 µM,7.42 µM,3.9 µM,3.64 µM,1.86 µM,3.03 µM,7.66 µM,2.18 µM,3.44 µM,1.55 µM,1.16 µM,2.38 µM,1.87 µM,1.75 µM
CCCCCCCCCCCCCCCCCC1=NC(C)(C)CN1CCO,3.05 µM,3.15 µM,4.43 µM,3.37 µM,18.6 µM,3.19 µM,3 µM,3.28 µM,3.18 µM,2.87 µM,1.57 µM,1.55 µM,1.63 µM,1.6 µM,3.8 µM,1.63 µM,1.61 µM,1.66 µM,1.68 µM,1.54 µM
C=CC[PH+](c1ccccc1)c1ccccc1.C=CC[PH+](c1ccccc1)c1ccccc1.[Cl][Pt][Cl],16.4 µM,8.19 µM,24.6 µM,22.7 µM,27.4 µM,10.6 µM,16.8 µM,32.4 µM,19.5 µM,4.7 µM,3.95 µM,2.68 µM,7.11 µM,10.6 µM,13 µM,3.2 µM,3.87 µM,14.2 µM,5.88 µM,2.1 µM
Cc1cc(N)c2ccccc2[n+]1CCCCCCCCCC[n+]1c(C)cc(N)c2ccccc21,> 50 µM and 12.9 µM and 14 µM,4.01 µM and 4.43 µM,4.63 µM and 15.8 µM and 11.1 µM,> 50 µM and 27.7 µM and 18.6 µM,> 50 µM and 49.4 µM and 26.9 µM,,> 50 µM and 25.9 µM and 81.9 µM,> 26.1 µM and 2.96 µM and 16.2 µM,,2.29 µM,0.954 µM and 2.84 µM,1.38 µM,0.245 µM and 0.744 µM,1.37 µM and 3.27 µM,,0.28 µM and 2 µM,1.25 µM and 3.67 µM,,0.189 µM,
CN1C(=O)C23CC4=CC=CC(O)C4N2C(=O)C1(CO)SS3 (centres undefined),2.03 µM,0.338 µM,0.387 µM,0.759 µM,1.33 µM,0.279 µM,0.419 µM,0.55 µM,0.424 µM,0.492 µM,,,,,,,,,,
N#Cc1ccc(N2Cc3cc(Cl)ccc3OC3=C2C(=O)N(Cc2ccccc2)C3=O)cc1,2.61 µM,0.62 µM,3.52 µM,2.78 µM,4.92 µM,1.25 µM,2.95 µM,11.7 µM,2.86 µM,2.85 µM,1.32 µM,0.25 µM,1.41 µM,1.39 µM,2.02 µM,0.284 µM,0.628 µM,3.32 µM,1.26 µM,1.47 µM
O=c1[nH]c2cc(O)ccc2n2cc3c(F)cccc3c12,> 100 µM,> 100 µM,> 100 µM,> 100 µM,> 100 µM,> 100 µM,> 100 µM,> 100 µM,> 100 µM,> 100 µM,0.995 µM,0.785 µM,4.54 µM,0.903 µM,4.69 µM,0.881 µM,0.536 µM,3.33 µM,1.29 µM,0.748 µM
Nc1ncnc2c1ncn2Cc1ccc(C23CC4CC(CC(C4)C2)C3)c(O)c1,> 100 µM,> 100 µM,96.3 µM,37.5 µM,> 100 µM,> 100 µM,> 100 µM,> 100 µM,> 100 µM,> 100 µM,90 µM,25.6 µM,8.36 µM,8.14 µM,33.4 µM,8.91 µM,58.6 µM,30.3 µM,31.8 µM,24.6 µM
O=[N+]([O-])c1cccc(-c2ncc(-c3ccc(Cl)cc3Cl)[nH]2)c1,15.3 µM,> 27.2 µM,14.9 µM,4.71 µM,6.81 µM,5.95 µM,6.82 µM,23.2 µM,20.6 µM,8.55 µM,5.18 µM,10.3 µM,3.69 µM,1.82 µM,2.15 µM,2.21 µM,2.39 µM,7.85 µM,7.63 µM,3.35 µM
CC(=O)C1=C(O)/C(=C\c2ccco2)OC1=O,> 10 µM,> 10 µM,> 10 µM,> 10 µM,> 10 µM,> 10 µM,> 10 µM,> 10 µM,> 10 µM,> 10 µM,,,,,,,,,,
CN1CCN(C(=S)SCN2C(=O)c3ccccc3S2(=O)=O)CC1,> 100 µM,34.1 µM,39.2 µM,> 100 µM,> 100 µM,44.9 µM,99.1 µM,> 100 µM,54.1 µM,36.9 µM,94.6 µM,7.26 µM,10.8 µM,51.9 µM,> 100 µM,12.8 µM,21.3 µM,> 100 µM,18.8 µM,11.6 µM
Nc1ccc2c(c1)CN1C(=O)c3ccccc3C1=N2,> 125 µM,112 µM,> 125 µM,> 70.3 µM,> 125 µM,> 125 µM,> 125 µM,124 µM,> 116 µM,> 125 µM,44 µM,12.8 µM,,,72.2 µM,29.7 µM,42.4 µM,60.6 µM,52.9 µM,
CC(C)n1nc(C#Cc2cccc(NC(=O)c3cccc(C(F)(F)F)c3)c2)c2c(N)ncnc21,6.1 µM,9.11 µM,> 100 µM,12.8 µM,> 100 µM,3.89 µM,> 100 µM,> 100 µM,1.24 µM,1.04 µM,0.601 µM,1.83 µM,2.91 µM,2.06 µM,3.46 µM,0.308 µM,2.41 µM,4.21 µM,0.19 µM,0.204 µM
O=C(Nc1ccccc1)Nc1ccccc1CNc1nc(Nc2ccc(OCCN3CCCC3)cc2)ncc1Cl,10.3 µM,18.8 µM,14 µM,12.4 µM,15.4 µM,7.12 µM,8.31 µM,12.5 µM,10.9 µM,2.11 µM,2.57 µM,5.3 µM,6.06 µM,6.1 µM,7.02 µM,1.75 µM,2 µM,5.53 µM,3.83 µM,1.02 µM
COc1cc(OC)c(/C=C/S(=O)(=O)Cc2ccc(OC)c(NCC(=O)O)c2)c(OC)c1,> 100 µM,0.213 µM and 0.0608 µM,> 100 µM,> 100 µM,> 100 µM,> 10 µM,> 100 µM,> 100 µM,> 100 µM,> 100 µM,,0.0374 µM and 0.0205 µM,0.119 µM and 0.0486 µM,,0.127 µM and 0.0834 µM,0.119 µM and 0.0934 µM,0.127 µM and 0.241 µM,0.139 µM and 0.244 µM,,0.15 µM and 0.134 µM
COc1cc2c(cc1OC)[C@H]1C(=O)c3cc4c(cc3[C@H]1N(C)C2=O)OCO4,> 39.3 µM,> 75 µM,> 100 µM,> 100 µM,> 100 µM,> 100 µM,> 100 µM,> 100 µM,> 100 µM,> 40.8 µM,,,,,,,,,,
Cn1c(COC(=O)NCCN2CCOCC2)nc2c(N3CCOCC3)nc(-c3ccccc3)nc21,2.18 µM,2.02 µM,3 µM,1.72 µM,3.36 µM,1.7 µM,1.87 µM,3.31 µM,2.81 µM,1.1 µM,0.838 µM,0.424 µM,1.33 µM,0.449 µM,1.48 µM,0.397 µM,0.46 µM,1.57 µM,1.36 µM,0.256 µM
COc1cc(OC)cc(N2CCN(C(=O)Nc3nc4cc(F)ccc4nc3OC)CC2)c1,38.9 µM and 43.3 µM,0.534 µM and 0.581 µM and 0.146 µM,40.7 µM and 22.9 µM,> 100 µM,> 87.1 µM and 66.6 µM,1.54 µM and 0.214 µM,> 100 µM,> 95.9 µM and 40.3 µM,27.2 µM and 21.9 µM,17.6 µM and 13.6 µM,0.0681 µM and 0.0692 µM and 0.0336 µM,0.012 µM and 0.0225 µM,0.116 µM and 0.0312 µM and 0.033 µM,0.0401 µM and 0.034 µM,0.0543 µM and 0.345 µM and 0.0636 µM,0.0381 µM and 0.0332 µM and 0.0334 µM,0.0318 µM and 0.0346 µM and 0.034 µM,0.0418 µM and 0.045 µM and 0.0431 µM,< 0.01 µM and 0.0142 µM,0.0506 µM and 0.0658 µM and 0.0352 µM
CCSc1nc(N)c2cnn(C)c2n1,> 100 µM,> 100 µM,> 100 µM,> 100 µM,> 100 µM,> 100 µM,> 100 µM,> 100 µM,69.6 µM,> 100 µM,38.3 µM,62.9 µM,38.9 µM,25.9 µM,56.7 µM,28.9 µM,32 µM,58.4 µM,29.5 µM,33 µM
N#CC1(C#N)C2C=CC(C3CCC=C32)C1(C#N)C#N (centres undefined),> 5.88 µM,> 7.9 µM,> 10 µM,> 10 µM,> 10 µM,> 10 µM,> 10 µM,> 10 µM,> 10 µM,> 10 µM,,,,,,,,,,
CN1CC(C(=O)NC2(C)OC3(O)C4CCCN4C(=O)C(Cc4ccccc4)N3C2=O)C=C2c3cccc4[nH]cc(c34)CC21 (centres undefined),77.9 µM,33.3 µM,59.6 µM,92 µM,> 100 µM,48.7 µM,45.9 µM,> 100 µM,34.7 µM,35.9 µM,,,,,,,,,,
COc1cc(C(=O)/C=C/c2c(C(F)(F)F)nc3sccn23)cc(OC)c1OC,3.71 µM,4.91 µM,8.69 µM,5.31 µM,10.7 µM,2.19 µM,5.39 µM,10.2 µM,2.95 µM,2.89 µM,1.87 µM,2.03 µM,2.66 µM,1.76 µM,2.72 µM,1.01 µM,1.8 µM,2.67 µM,1.52 µM,1.36 µM
CC(C)(C)NCCC(O)c1cc(C(F)(F)F)nc2c(C(F)(F)F)cccc12 (centres undefined),1.34 µM,25.1 µM,20.6 µM,9.97 µM,27.2 µM,17.1 µM,21 µM,27.3 µM,25.3 µM,5.31 µM,,,,,,,,,,
OCCCCC#Cc1ccccc1C#Cc1cnccn1,> 100 µM,63.7 µM,> 100 µM,> 100 µM,95.3 µM,> 100 µM,> 100 µM,> 100 µM,> 100 µM,> 100 µM,27 µM,24.5 µM,34.6 µM,26.4 µM,36.5 µM,42.6 µM,33.3 µM,73.4 µM,21.2 µM,32 µM
COC(=O)C1=C(O)C(C(=O)OC)[C@@]2(O)[C@@H](C(=O)OC)C(c3ccc(OC(=O)C(CC(C)C)NC(C)=O)cc3)C[C@@H]1[C@@H]2C(=O)OC (some centres undefined),> 100 µM,> 100 µM,> 100 µM,> 100 µM,> 100 µM,> 100 µM,> 100 µM,> 100 µM,63.8 µM,45 µM,> 100 µM,60.9 µM,33.9 µM,> 100 µM,39.7 µM,29.3 µM,31.9 µM,37.1 µM,23.2 µM,20.6 µM
